Test results: patent US9957247B2, “SecA inhibitors and methods of making and using thereof” (Georgia State University Research Foundation, Inc., priority 2012, dated 2018)
Converted amounts (≈) assume the structure as drawn. Read-outs that look alike come from different tables or passages of the source.

What was measured:
MsSecA = MsSecA (Mycolicibacterium smegmatis, UniProt P71533); assay: SecA-liposomes ion-channel activity in oocytes, MsSecA; format: cell-based; details: Table 1
EcSecA [1] = target: T1, EcSecA (Escherichia coli, UniProt P10408); assay: biochemical; details: IC50, Translocation ATPase, Table 1
Target sequence in this assay (P0AG99 whole entry): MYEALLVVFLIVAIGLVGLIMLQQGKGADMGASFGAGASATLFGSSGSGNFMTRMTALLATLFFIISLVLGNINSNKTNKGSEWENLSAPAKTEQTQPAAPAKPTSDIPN
Target sequence in this assay (P10408 whole entry): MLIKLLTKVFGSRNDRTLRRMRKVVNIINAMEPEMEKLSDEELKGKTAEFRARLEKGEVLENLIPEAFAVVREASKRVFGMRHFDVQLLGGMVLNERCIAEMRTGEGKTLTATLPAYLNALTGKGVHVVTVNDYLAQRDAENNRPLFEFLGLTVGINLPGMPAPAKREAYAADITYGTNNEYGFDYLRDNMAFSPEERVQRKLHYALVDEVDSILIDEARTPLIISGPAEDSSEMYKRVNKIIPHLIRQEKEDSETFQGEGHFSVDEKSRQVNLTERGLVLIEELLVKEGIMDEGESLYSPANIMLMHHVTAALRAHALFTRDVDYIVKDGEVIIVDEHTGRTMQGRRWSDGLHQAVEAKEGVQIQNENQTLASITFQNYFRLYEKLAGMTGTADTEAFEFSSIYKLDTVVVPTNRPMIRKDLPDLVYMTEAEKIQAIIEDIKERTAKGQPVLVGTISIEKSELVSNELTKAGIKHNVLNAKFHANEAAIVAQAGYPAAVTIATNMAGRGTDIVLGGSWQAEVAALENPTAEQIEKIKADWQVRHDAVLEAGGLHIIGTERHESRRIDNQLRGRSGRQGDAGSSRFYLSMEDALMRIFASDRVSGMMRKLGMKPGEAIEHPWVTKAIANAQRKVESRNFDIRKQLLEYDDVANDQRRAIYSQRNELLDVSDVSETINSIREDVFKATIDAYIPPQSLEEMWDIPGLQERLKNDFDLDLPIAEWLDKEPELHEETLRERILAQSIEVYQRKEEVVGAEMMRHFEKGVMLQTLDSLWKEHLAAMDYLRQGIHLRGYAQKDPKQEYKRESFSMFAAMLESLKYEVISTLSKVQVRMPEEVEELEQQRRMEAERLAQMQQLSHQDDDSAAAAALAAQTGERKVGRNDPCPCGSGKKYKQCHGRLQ
Target sequence in this assay (P0AGA2 whole entry, further chain): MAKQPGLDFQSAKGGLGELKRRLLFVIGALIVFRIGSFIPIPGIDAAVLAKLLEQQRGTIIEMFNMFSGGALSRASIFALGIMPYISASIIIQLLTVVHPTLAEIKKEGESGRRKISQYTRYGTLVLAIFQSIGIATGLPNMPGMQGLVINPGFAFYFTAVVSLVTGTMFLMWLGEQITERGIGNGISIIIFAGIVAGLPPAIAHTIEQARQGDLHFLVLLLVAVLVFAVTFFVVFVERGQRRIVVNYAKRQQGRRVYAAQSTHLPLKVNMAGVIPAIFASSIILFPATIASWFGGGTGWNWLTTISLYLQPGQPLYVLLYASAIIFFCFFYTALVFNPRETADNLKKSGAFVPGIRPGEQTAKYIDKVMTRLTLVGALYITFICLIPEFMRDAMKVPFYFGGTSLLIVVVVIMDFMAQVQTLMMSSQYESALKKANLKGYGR
Target sequence in this assay (P0AG96 whole entry, further chain): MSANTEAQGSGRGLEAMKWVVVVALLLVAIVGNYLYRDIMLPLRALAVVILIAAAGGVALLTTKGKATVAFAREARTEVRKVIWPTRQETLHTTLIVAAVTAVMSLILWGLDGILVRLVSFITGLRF

SaSecA1 = target: T2, SaSecA1 (Staphylococcus aureus, UniProt O06446); assay: cell-based
T2 sequence (O06446 1-843): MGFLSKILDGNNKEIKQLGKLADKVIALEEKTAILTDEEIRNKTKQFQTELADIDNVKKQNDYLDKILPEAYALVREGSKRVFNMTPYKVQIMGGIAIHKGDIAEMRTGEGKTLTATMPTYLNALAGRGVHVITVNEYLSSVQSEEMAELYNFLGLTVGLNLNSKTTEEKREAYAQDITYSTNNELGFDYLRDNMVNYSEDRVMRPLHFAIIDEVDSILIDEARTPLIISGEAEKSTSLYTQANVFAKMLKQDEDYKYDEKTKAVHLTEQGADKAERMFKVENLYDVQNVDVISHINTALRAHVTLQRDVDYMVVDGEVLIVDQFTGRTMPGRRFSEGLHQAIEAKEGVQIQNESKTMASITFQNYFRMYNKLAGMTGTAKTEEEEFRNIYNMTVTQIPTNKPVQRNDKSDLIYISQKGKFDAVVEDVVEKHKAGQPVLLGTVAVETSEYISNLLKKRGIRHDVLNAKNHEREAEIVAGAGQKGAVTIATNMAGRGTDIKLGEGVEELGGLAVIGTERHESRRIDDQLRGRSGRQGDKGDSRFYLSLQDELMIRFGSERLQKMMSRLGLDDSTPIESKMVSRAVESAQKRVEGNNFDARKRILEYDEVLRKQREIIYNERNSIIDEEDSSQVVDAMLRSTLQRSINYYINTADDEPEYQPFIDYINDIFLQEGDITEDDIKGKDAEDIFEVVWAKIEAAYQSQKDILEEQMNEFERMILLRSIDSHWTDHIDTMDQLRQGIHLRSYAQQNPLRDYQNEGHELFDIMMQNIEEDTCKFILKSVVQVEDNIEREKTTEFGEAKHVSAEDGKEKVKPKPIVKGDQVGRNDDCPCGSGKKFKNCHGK

SpSecA = SpSecA (Streptococcus pyogenes, UniProt Q99Y96); format: cell-based; details: read-out: IC50, Ion Channel activity, SpSecA
Chain of SpSecA (Q99Y96 whole entry): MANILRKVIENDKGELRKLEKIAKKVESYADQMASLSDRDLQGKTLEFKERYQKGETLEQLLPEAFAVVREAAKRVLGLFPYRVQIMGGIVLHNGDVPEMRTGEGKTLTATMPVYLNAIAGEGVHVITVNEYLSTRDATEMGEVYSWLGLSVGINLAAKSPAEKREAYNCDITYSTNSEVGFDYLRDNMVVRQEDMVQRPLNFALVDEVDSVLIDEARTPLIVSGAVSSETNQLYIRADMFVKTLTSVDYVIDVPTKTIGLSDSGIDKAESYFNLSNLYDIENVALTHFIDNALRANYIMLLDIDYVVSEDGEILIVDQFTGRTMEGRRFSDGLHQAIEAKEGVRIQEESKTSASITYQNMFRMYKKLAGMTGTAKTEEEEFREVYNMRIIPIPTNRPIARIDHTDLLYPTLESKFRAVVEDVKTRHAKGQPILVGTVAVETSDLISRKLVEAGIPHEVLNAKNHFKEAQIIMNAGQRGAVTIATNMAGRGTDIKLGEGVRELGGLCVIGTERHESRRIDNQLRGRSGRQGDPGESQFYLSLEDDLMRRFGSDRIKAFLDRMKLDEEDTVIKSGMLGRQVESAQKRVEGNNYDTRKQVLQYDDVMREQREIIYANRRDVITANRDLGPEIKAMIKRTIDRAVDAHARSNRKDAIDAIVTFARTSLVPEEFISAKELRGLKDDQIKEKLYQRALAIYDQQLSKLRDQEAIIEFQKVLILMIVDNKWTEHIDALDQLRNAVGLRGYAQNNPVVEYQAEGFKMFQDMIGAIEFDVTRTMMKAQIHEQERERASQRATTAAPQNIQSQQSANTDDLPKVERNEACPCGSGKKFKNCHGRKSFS

BaSecA1 = BaSecA1 (Bacillus anthracis, UniProt Q81X26); assay: cell-based; details: IC50, Ion Channel activity, BGaSecA 1
Chain of BaSecA1 (Q81X26 whole entry, looked up): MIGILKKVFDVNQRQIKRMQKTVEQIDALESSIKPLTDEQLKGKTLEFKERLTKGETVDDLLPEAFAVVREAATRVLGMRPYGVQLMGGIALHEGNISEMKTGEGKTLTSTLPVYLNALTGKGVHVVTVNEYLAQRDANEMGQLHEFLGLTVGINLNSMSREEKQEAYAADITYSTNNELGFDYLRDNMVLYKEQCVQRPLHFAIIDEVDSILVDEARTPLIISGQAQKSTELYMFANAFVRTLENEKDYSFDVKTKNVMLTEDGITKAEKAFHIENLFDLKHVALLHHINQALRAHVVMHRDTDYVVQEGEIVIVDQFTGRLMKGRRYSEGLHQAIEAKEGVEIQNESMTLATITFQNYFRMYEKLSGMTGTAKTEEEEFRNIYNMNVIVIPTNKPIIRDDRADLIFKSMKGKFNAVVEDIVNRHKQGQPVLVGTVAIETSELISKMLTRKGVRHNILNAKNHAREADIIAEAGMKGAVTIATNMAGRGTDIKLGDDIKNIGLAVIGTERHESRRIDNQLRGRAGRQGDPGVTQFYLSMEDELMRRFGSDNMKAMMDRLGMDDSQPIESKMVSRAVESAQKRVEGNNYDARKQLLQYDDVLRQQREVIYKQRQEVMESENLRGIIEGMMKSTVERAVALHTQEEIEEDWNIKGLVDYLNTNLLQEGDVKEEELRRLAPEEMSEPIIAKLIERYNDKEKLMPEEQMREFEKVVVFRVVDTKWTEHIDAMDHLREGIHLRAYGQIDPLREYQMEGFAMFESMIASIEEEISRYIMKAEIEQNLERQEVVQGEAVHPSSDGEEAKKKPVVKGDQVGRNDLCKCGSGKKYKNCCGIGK

BsSecA [2] = target: T3, BsSecA (Bacillus subtilis, UniProt P28366); assay: cell-based; set-up: species or system B. subtilis; details: IC50, Ion Channel activity, BsSecA, Table 1
T3 sequence (P28366 whole entry): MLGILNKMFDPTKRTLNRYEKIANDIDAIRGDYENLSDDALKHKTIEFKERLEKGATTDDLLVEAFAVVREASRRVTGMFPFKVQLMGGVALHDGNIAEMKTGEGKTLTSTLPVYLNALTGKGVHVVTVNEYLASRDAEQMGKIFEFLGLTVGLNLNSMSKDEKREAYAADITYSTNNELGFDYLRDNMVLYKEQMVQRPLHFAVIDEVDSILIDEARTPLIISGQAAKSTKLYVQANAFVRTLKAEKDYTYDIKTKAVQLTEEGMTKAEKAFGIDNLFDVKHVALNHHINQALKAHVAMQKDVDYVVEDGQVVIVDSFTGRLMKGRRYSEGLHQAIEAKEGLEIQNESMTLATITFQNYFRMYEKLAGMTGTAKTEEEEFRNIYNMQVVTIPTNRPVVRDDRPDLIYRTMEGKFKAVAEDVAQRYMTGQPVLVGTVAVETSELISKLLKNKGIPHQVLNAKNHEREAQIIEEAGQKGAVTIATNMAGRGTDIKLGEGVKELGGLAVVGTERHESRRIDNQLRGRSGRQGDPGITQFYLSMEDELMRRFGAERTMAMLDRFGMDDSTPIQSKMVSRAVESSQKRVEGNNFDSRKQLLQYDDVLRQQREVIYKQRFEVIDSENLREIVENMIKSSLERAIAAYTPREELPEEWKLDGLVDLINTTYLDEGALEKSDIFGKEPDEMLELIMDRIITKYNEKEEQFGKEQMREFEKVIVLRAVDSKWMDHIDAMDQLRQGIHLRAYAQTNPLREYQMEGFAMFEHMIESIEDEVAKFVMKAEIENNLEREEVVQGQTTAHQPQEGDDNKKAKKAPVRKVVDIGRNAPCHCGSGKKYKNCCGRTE

B. anthracis Sterne = assay: microbe, parasite or virus in culture; format: cell-based; details: Bacillus anthracis, read-out: Bacteriostatic MIC95, B. anthracis Sterne
EcSecA N68 = EcSecA N68 (Escherichia coli, UniProt P10408); assay: biochemical; format: biochemical, E. coli
Chain of EcSecA N68 (P10408 1-610): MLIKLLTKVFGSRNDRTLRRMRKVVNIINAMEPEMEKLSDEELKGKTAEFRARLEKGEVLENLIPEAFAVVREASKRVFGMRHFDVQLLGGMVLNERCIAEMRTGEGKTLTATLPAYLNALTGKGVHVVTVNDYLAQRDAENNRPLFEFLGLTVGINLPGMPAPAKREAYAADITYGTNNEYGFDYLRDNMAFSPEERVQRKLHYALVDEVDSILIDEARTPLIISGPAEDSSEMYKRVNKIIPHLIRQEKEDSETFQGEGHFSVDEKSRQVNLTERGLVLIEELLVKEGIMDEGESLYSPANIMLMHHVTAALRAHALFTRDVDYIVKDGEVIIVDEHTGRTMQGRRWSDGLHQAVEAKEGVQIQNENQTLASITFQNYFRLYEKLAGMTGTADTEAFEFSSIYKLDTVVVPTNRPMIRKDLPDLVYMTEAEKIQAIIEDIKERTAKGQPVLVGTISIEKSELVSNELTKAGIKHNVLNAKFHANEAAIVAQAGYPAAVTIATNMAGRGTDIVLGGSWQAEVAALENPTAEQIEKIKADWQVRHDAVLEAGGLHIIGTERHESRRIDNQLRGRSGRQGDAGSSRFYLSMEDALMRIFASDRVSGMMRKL

S. pyogenes, MGAS5005 = assay: MIC95, S. pyogenes MGAS5005; format: cell-based; details: Streptococcus pyogenes, MGAS5005; read-out: MIC95, S. pyogenes MGAS5005
EcSecA [3] = target: T1, EcSecA; assay: biochemical; details: IC50, Protein Translocation, Table 1
Target sequence in this assay (P0AG99 whole entry): as the sequence (P0AG99 whole entry) above
Target sequence in this assay (P10408 whole entry): as the sequence (P10408 whole entry) above
Target sequence in this assay (P0AGA2 whole entry, further chain): as the sequence (P0AGA2 whole entry, further chain) above
Target sequence in this assay (P0AG96 whole entry, further chain): as the sequence (P0AG96 whole entry, further chain) above

[4] = tested on: S. aureus deletion strains (NorA−, MepA−) and strains (NorA++, MepA++) with over-expressed efflux pumps; assay: Antimicrobial effect with deletion or over expression of efflux pumps in S. aureus; details: for Bactericidal (killing) effect with over expression of efflux pumps / MIC (bacteriostatic) with over expression of efflux pumps: wild type, NorA−/MepA− and NorA++/MepA++ strains
MtbSecA = MtbSecA (Mycobacterium tuberculosis, UniProt P9WGP5); assay: cell-based
BsSecA [5] = target: T3, BsSecA; assay: biochemical; format: biochemical, B. subtilis
S. aureus Mu50 = assay: Bacteriostatic effect, S. aureus Mu50; details: Staphylococcus aureus
EcSecA [6] = target: T1, EcSecA; assay: cell-based
Target sequence in this assay (P10408 whole entry): as the sequence (P10408 whole entry) above

EcSecA [7] = target: T1, EcSecA; assay: biochemical; set-up: species or system E. coli; details: IC50, Intrinsic ATPase, Table 1, full-length EcSecA
Target sequence in this assay (P10408 whole entry): as above

BsSecA2 = details: read-out: IC50, Intrinsic ATPase, BsSecA2; Table 1
SaSecA2 = target: T4, SaSecA2 (Staphylococcus aureus, UniProt Q2FUW6); assay: ATPase activity assay (malachite green), SaSecA2
T4 sequence (Q2FUW6 1-796): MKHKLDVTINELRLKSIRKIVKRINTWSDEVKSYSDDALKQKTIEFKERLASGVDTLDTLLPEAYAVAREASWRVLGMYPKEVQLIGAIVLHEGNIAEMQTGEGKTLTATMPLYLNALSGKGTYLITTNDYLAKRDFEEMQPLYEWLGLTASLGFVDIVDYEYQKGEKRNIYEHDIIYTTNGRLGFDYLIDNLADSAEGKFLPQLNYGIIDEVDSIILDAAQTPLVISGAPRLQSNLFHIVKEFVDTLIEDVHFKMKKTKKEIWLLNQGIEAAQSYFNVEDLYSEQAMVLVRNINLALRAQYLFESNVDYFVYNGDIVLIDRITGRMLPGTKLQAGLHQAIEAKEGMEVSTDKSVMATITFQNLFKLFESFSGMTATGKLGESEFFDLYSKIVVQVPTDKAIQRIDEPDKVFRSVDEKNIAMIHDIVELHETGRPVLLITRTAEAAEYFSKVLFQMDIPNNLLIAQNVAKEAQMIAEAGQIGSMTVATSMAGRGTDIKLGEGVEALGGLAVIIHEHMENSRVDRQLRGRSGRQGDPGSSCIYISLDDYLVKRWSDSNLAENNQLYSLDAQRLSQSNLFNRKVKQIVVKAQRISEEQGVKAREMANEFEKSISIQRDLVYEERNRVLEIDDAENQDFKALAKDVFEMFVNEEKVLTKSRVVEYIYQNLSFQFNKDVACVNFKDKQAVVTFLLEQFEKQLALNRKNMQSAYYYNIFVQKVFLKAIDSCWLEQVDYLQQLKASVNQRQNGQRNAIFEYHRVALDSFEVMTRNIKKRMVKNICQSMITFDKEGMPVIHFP

[8] = tested on: secretion of α-hemolysin, enterotoxin B and TSST-1 by S. aureus Mu50; format: cell-based
S. aureus 8325-4 = assay: Bacteriostatic effect, S. aureus 8325-4 (WT); details: Staphylococcus aureus, 83254, read-out: Bacteriostatic effect, MIC, WT 8325-4
[9] = Bactericidal effect in the dark and under light (photooxidation); format: cell-based; details: under light versus dark
S. aureus 6538 = assay: Bacteriostatic effect, S. aureus 6538; details: Staphylococcus aureus, 6538, read-out: Bacteriostatic effect, MIC, S. aureus 6538
S. aureus N315 = assay: Bacteriostatic effect, S. aureus N315; details: Staphylococcus aureus, N315, read-out: Bacteriostatic effect, MIC, S. aureus N315
S. aureus Mu3 = assay: Bacteriostatic effect, S. aureus Mu3; details: Staphylococcus aureus, MU3, read-out: Bacteriostatic effect, MIC, S. aureus Mu3
PaSecA = PaSecA (Pseudomonas aeruginosa, UniProt Q9LCT3); assay: cell-based; format: cell-based; details: IC50, Ion Channel activity, PASecA, Table 1
[10] = MU50, read-out: Bacteriostatic MIC95, S. aureus Mu50, Table 2
[11] = MU50, read-out: MIC95 against drug resistant S. aureus Mu50
[12] = IC50, Intrinsic ATPase, SaSecA2, Table 1

Row | Compound | IC50 (MsSecA) [µM] | IC50 (EcSecA [1]) [µM] | IC50 (SpSecA) [µM] | IC50 (BaSecA1) [µM] | IC50 (BsSecA [2]) [µM] | MIC (B. anthracis Sterne) [µg/mL] | IC50 (EcSecA N68) [µM] | IC50 (EcSecA [3]) [µM] | Bactericidal (killing) effect with over expression of efflux pumps [4] | MIC (bacteriostatic) with over expression of efflux pumps [4] | IC50 (MtbSecA) [µM] | IC50 (BsSecA [5]) [µM] | MIC (S. aureus Mu50; [10]) [µg/mL] | MIC (S. aureus Mu50; [11]) [µM] | IC50 (EcSecA [6]) [µM] | IC50 (EcSecA [7]) [µM] | IC50 (BsSecA2) [µM] | IC50 (SaSecA2; [12]) [µM] | other results
1 | CSc1nc(Sc2nnc(-c3cc(C(F)(F)F)cc(C(F)(F)F)c3)[nH]2)cc(Sc2nnc(-c3cc(C(F)(F)F)cc(C(F)(F)F)c3)[nH]2)n1 [SCA-21] | 2 | 20 | 1 | 1.5 | 2.6 | 3 (≈ 4.01 µM) | 18 | 21 | not attenuated | did not increase | 2 | > 100 | 1.5 | 1.5 | 2.4 | 32 | 45 | 43 | IC50 (SaSecA1): 1.6 µM; MIC (S. pyogenes, MGAS5005): 0.39 µM (≈ 0.292 µg/mL)
2 | Oc1ccc2c(c1)Oc1cc(O)ccc1C2C1CCCC1 [SCA-41] | 3.5 | 15 | 3 | 3.8 | 3 | 1.1 (≈ 3.9 µM) | 8 | 55 | not attenuated | did not increase | 3.2 | 30 | 1.7 | 1.7 | 3.4 | 30 | 30 | 6 | Amount of α-hemolysin, enterotoxin B, and TSST-1 in the supernatant [8]: significantly decreased; MIC (S. aureus 8325-4): 11.8 µg/mL (≈ 41.8 µM); Effect of light on the bactericidal effect [9]: not affected by light; MIC (S. aureus 6538): 10.6 µg/mL (≈ 37.5 µM); Change of MIC on overexpression or deletion of NorA or MepA [4]: did not significantly change; MIC (S. aureus Mu50; MU50, read-out: Bacteriostatic effect MIC, S. aureus Mu50, Table 10 and Example 4): 8.8 µg/mL; MIC (S. aureus Mu50; MU50, read-out: Bacteriostatic effect, MIC, S. aureus Mu50, Table 8): 8.8 µg/mL; MIC (S. aureus N315): 14.1 µg/mL (≈ 49.9 µM); MIC (S. aureus Mu3): 14.1 µg/mL (≈ 49.9 µM); IC50 (PaSecA): 3.6 µM; IC50 (SaSecA2; IC50, ATPase activity, SaSecA2, Table 7): 32.5 µM
